From patent publication US20200208128A1, “METHODS OF TREATING LIVER DISEASES” (CAMP4 THERAPEUTICS CORPORATION, priority 2017, published 2020)
Entries after “also recorded” stand apart in the source; their conditions may differ.

Key:
PNPLA3 [1] = test: RNA-seq of compound-treated primary human hepatocytes: PNPLA3 expression; format: cell-based
Protocol: (§6) Cryopreserved hepatocytes were cultured in plating media for 16 hours, transferred to maintenance media for 4 hours. Cultured on serum-free media for 2 hours, then a compound was added. The hepatocytes were maintained on the serum-free media for 16 hours prior to gene expression analysis.
(§7) Human hepatocytes cultured as described above were plated in 24-well format, adding 375,000 cells per well in a volume of 500 ul plating medium. Four hours before treatment, cells were washed with PBS and the medium was changed to either: fresh maintenance medium (complete) or modified maintenance medium.
Compound stocks were prepared at 1000× final concentration and added in a 2-step dilution to the medium to reduce risk of a compound precipitating out of solution when added to the cells, and to ensure reasonable pipetting volumes. One at a time, each compound was first diluted 10-fold in warm (about 37° C.) modified maintenance medium (initial dilution=ID), mixed by vortexing, and the ID was diluted 100-fold into the cell culture (e.g. 5.1 μl into 1 well of a 24-well plate containing 0.5 mL medium). The plate was mixed by carefully swirling and after all wells were treated and returned to the incubator overnight. If desired, separate plates/wells were treated with vehicle-only controls and/or positive controls. If using multi-well plates, controls were included on each plate. After about 18 hours, cells were harvested for further analysis, e.g., ChIP-seq, RNA-seq, ATAC-seq, etc.
The expression level of each gene was quantified with normalized FPKM (fragments per kilobase of exon per million mapped fragments). The differentially expressed genes were called using Cuffdiff v2.2.1 with q value <0.01 and log 2fold change >=1 or <=−1.
RNA-seq was performed to determine the effects of the compounds on PNPLA3 expression in hepatocytes. Fold change was calculated by dividing the level of expression in the cell system that had been perturbed by the level of expression in an unperturbed system. Changes in expression having a p-value ≤0.05 were considered significant.

PNPLA3 [2] = test: qRT-PCR of PNPLA3 mRNA in hepatic stellate cells; format: cell-based, human; conditions: for Effect on PNPLA3 mRNA levels in stellate cells: serial dilutions; for Relative PNPLA3 mRNA levels RQ: fold change vs DMSO
Protocol: (§1) Human Primary Stellate cells (HSC) (ScienceCell Cat #5300) were originally isolated from the liver of a donor. Cells were plated in Stellate Cell Medium (SteCM) (ScienCell Cat #5301) on black clear bottom plates (GREINER BIO-ONE:82050-730) coated with 2 μg/cm^2 PolyLLysine (PLL) (ScienceCell Cat #0413). Cells were plated at a density of 17000 cells/well in a 96-well plate and allowed to adhere overnight. The following day cell culture media was replenished with the indicated concentration(s) of compound for 18 hours. […] Medium was removed after 18 hours and cells were processed for further analysis, e.g. qRT-PCR.
(§2) In some examples, RQ Min and RQ Max values are also reported. RQ Min and RQ Max are the minimum and maximum relative levels of gene expression in the test samples, respectively. They were calculated using the confidence level set in the analysis settings and the confidence level was set to one standard deviation (SD). These values were calculated using standard deviation as follows: […].
(§3) Candidate compounds were tested in stellate cells for their ability to modulate PNPLA3 and COL1A1. Stellate cells were treated with serial dilutions of the compounds, ranging from 0.1 μM to 100 μM. Changes in PNPLA3 (or COL1A1) mRNA levels in stellate cells were analyzed with qRT-PCR. Once compounds capable of downregulating PNPLA3 and/or COL1A1 were identified, additional compounds that are known to act in the same pathways were also tested. Transforming growth factor beta (TGF-beta) is known to induce fibrotic genes including COL1A1 in vitro, and was thus chosen as a positive control (i.e., positively regulate COL1A1 expression).

COL1A1 [3] = test: qRT-PCR of COL1A1 mRNA in hepatic stellate cells; format: cell-based, human; conditions: for Effect on COL1A1 expression in stellate cells: serial dilutions; for Relative COLIA1 mRNA levels RQ: four technical replicates; for Relative COL1A1 mRNA levels RQ: fold change vs DMSO
Protocol: as §1, §2
as §3, with “Stellate cells were treated with serial dilutions of the compounds, ranging from 0.1 μM to 100 μM.” left out

COL1A1 [4] = test: In vivo compound testing in mice: COL1A1 expression in liver (qRT-PCR); set-up: species or system mouse; conditions: wild-type mice, 50 mg/kg once daily oral gavage, four days, GFAP as house-keeping control
Protocol: (§4) A group of 6 mice (C57BL/6J strain), 3 male and 3 female, were administered with a candidate compound once daily via oral gavage for four consecutive days. Mice were sacrificed 4 hours post-last dose on the fourth day. Organs including liver, spleen, kidney, adipose, plasma were collected. Mouse liver tissues were pulverized in liquid nitrogen and aliquoted into small microtubes. TRIzol (Invitrogen Cat #15596026) was added to the tubes to facilitate cell lysis from tissue samples. The TRIzol solution containing the disrupted tissue was then centrifuged and the supernatant phase was collected. Total RNA was extracted from the supernatant using Qiagen RNA Extraction Kit (Qiagen Cat #74182) and the target mRNA levels were analyzed using qRT-PCR.
(§5) Candidate compounds were administered at an appropriate dose once daily to a group of wild-type mice consisting of 3 male and 3 female mice. Mice were sacrificed on the fourth day and liver tissue was collected and analyzed for PNPLA3 (or COL1A1) expression by qRT-PCR. […] When COL1A1 was analyzed, a stellate cell specific gene GFAP was used as a house-keeping control.

PNPLA3 [5] = test: qRT-PCR validation of PNPLA3 expression in primary human hepatocytes; format: cell-based
Protocol: Cryopreserved hepatocytes were cultured in plating media for 16 hours, transferred to maintenance media for 4 hours. Cultured on serum-free media for 2 hours, then a compound was added. The hepatocytes were maintained on the serum-free media for 16 hours prior to gene expression analysis. Primary Human Hepatocytes were stored in the vapor phase of a liquid nitrogen freezer (about −130° C.).
as §7
Compound stocks were prepared at 1000× final concentration and added in a 2-step dilution to the medium to reduce risk of a compound precipitating out of solution when added to the cells, and to ensure reasonable pipetting volumes. One at a time, each compound was first diluted 10-fold in warm (about 37° C.) modified maintenance medium (initial dilution=ID), mixed by vortexing, and the ID was diluted 100-fold into the cell culture (e.g. 5.1 μl into 1 well of a 24-well plate containing 0.5 mL medium). The plate was mixed by carefully swirling and after all wells were treated and returned to the incubator overnight. If desired, separate plates/wells were treated with vehicle-only controls and/or positive controls. If using multi-well plates, controls were included on each plate.
Samples were amplified using the following Taqman probes from ThermoFisher for each target: Hs01552217_m1 (human PNPLA3).
Analysis of the fold changes in expression as measured by qRT-PCR were performed using the technique below. The control was DMSO, and the treatment was the selected compound (CPD). The internal control was GAPDH or B-Actin (or otherwise indicated), and the gene of interest is the target. First, the averages of the 4 conditions were calculated for normalization: DMSO:GAPDH, DMSO:Target, CPD: GAPDH, and CPD:Target. Next, the ΔCT of both control and treatment were calculated to normalize to internal control (GAPDH) using (DMSO:Target)−(DMSO:GAPDH)=ΔCT control and (CPD:Target)−(CPD: GAPDH)=ΔCT experimental. Then, the ΔΔCT was calculated by ΔCT experimental−ΔCT control. The Expression Fold Change (or Relative Quantification, abbreviated as RQ) was calculated by 2−(ΔΔCT) (2-fold expression change was shown by RNA-Seq results provided herein).
Candidate compounds were subjected to validation with qRT-PCR in human hepatocytes. qRT-PCR was performed on samples of primary human hepatocytes from a second donor treated with the candidate compounds. Compounds were tested at concentrations ranging from 0.01 μM to 50 μM, with the majority tested at 10 μM.

[6] = test system: PNPLA3 (I148M mutation), HepG2 cells; test: qRT-PCR of mutant PNPLA3 expression in HepG2 cells; format: cell-based
Protocol: HepG2 cells were plated in 24 well format at 100,000 cells per well in 500 μl DMEM. […] The following morning, the cells were harvested for RNA extraction.
Candidate compounds were evaluated in a PNPLA3 mutant cell line HepG2 to test their effects on mutant PNPLA3 expression. The HepG2 cells have the I148M mutation in PNPLA3. Changes in PNPLA3 expression in HepG2 cells were analyzed with qRT-PCR. PNPLA3 mRNA levels were normalized to the geometric mean of two internal controls, GUSB and B2M.

PNPLA3 [7] = test: In vivo compound testing in mice: PNPLA3 expression in liver (qRT-PCR); set-up: species or system mouse; conditions: wild-type mice, 50 mg/kg once daily oral gavage, four days
Protocol: as §4, §5

[8] = In vivo compound testing in mice: body weight, organ weight, other liver genes; set-up: species or system mouse; conditions: 50 mg/kg once daily, four days
Protocol: as §4, §5

JNK = conditions: cited from earlier work
[9] = target: stem cell growth factor receptor (SCFR or c-Kit) (Homo sapiens, UniProt P10721); conditions: cited from earlier work
stem cell growth factor receptor (SCFR or c-Kit), sequence (P10721 whole entry D816H, form open): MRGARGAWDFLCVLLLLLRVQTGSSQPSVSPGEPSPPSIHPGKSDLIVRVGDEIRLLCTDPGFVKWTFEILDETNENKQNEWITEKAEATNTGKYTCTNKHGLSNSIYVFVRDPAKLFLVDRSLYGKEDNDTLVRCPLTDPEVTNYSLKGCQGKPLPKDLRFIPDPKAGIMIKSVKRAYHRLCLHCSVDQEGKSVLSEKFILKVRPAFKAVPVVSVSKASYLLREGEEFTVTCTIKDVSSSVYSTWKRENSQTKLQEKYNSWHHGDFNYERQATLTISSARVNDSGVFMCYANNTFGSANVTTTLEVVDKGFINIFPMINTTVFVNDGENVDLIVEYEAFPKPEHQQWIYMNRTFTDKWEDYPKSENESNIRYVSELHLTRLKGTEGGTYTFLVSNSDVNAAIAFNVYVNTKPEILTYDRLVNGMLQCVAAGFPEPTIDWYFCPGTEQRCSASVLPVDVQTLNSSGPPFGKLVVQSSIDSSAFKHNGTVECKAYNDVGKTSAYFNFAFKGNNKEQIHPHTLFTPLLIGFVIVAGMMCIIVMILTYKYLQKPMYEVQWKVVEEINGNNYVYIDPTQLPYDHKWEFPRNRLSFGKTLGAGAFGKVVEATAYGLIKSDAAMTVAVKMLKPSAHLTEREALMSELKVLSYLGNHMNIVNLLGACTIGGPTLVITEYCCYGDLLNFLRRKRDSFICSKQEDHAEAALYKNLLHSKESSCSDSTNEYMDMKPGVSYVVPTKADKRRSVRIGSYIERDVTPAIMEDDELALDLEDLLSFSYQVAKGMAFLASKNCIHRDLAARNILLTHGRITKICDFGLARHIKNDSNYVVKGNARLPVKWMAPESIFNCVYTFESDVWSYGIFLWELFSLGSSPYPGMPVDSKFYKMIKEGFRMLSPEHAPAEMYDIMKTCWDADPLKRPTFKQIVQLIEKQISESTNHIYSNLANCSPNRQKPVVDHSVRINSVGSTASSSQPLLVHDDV

[10] = target: Platelet-derived growth factor receptor alpha (PDGFRα) (Homo sapiens, UniProt P16234); conditions: cited from earlier work
Platelet-derived growth factor receptor alpha (PDGFRα), sequence (P16234 593-954 limits assumed): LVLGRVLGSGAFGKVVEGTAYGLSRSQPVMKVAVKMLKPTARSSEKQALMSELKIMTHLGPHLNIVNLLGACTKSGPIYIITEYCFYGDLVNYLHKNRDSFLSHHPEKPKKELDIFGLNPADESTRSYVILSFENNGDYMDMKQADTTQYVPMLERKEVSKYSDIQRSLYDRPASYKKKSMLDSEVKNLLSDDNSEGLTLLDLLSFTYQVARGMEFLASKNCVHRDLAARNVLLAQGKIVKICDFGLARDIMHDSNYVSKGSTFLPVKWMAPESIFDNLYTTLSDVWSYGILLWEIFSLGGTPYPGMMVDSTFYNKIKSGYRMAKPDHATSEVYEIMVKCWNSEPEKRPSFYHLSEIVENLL

FLT3 = target: T1, FLT3 (Homo sapiens, UniProt P36888); conditions: cited from earlier work
T1 construct: IC50; other: FLT3
T1 sequence (P36888 1-993 D835Y): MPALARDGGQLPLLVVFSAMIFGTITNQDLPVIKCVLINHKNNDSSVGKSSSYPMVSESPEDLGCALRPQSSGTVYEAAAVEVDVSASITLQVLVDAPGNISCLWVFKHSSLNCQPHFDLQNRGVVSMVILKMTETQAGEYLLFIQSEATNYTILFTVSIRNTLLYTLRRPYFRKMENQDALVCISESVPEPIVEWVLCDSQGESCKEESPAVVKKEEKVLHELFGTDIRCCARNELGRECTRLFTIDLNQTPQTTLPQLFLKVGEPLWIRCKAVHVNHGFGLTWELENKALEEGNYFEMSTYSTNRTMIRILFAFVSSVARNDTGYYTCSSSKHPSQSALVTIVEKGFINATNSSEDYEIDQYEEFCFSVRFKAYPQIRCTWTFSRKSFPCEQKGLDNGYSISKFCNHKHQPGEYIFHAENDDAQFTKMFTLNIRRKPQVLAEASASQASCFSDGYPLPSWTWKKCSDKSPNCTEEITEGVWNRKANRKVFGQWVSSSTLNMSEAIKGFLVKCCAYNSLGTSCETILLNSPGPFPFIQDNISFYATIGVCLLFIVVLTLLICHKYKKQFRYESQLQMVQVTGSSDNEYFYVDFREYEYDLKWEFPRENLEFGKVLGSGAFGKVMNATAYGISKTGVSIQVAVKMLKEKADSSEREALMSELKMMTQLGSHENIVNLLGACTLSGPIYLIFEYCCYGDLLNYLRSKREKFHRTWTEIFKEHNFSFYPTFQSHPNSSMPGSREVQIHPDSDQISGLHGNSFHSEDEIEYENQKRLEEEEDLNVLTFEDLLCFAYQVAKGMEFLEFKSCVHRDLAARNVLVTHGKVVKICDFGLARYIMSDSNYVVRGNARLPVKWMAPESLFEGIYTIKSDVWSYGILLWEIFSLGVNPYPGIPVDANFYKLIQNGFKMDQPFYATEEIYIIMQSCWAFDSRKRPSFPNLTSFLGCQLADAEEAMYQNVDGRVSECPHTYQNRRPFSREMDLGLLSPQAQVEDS

PNPLA3 [11] = test: qRT-PCR of PNPLA3 expression in mouse hepatocytes; format: cell-based
Protocol: Analysis of the fold changes in expression as measured by qRT-PCR were performed using the technique below. The control was DMSO, and the treatment was the selected compound (CPD). The internal control was GAPDH or B-Actin (or otherwise indicated), and the gene of interest is the target. First, the averages of the 4 conditions were calculated for normalization: DMSO:GAPDH, DMSO:Target, CPD: GAPDH, and CPD:Target. Next, the ΔCT of both control and treatment were calculated to normalize to internal control (GAPDH) using (DMSO:Target)−(DMSO:GAPDH)=ΔCT control and (CPD:Target)−(CPD: GAPDH)=ΔCT experimental. Then, the ΔΔCT was calculated by ΔCT experimental−ΔCT control.
Compounds were tested at concentrations ranging from 0.01 μM to 50 μM. […] PNPLA3 levels were normalized to the level of a house keeping gene ACTB.

PNPLA5 = test: RNA-seq of compound-treated primary human hepatocytes: PNPLA5 expression; format: cell-based
Protocol: as §6, §7
Compound stocks were prepared at 1000× final concentration and added in a 2-step dilution to the medium to reduce risk of a compound precipitating out of solution when added to the cells, and to ensure reasonable pipetting volumes. One at a time, each compound was first diluted 10-fold in warm (about 37° C.) modified maintenance medium (initial dilution=ID), mixed by vortexing, and the ID was diluted 100-fold into the cell culture (e.g. 5.1 μl into 1 well of a 24-well plate containing 0.5 mL medium). […]
The expression level of each gene was quantified with normalized FPKM (fragments per kilobase of exon per million mapped fragments). […]
Fold change was calculated by dividing the level of expression in the cell system that had been perturbed by the level of expression in an unperturbed system. […]

CN1C(=O)c2sccc2N(C)c2nc(Nc3ccc(S(N)(=O)=O)cc3)ncc21 [XMU-MP-1]
PNPLA3 expression, Fold change (Log 2) vs untreated (PNPLA3 [1]): −0.66 Log 2

CNC(=O)Nc1ccc(-c2nc(N3CC4CCC(C3)O4)c3cnn(C4CCC5(CC4)OCCO5)c3n2)cc1 [WYE-125132]
PNPLA3 expression, Fold change (Log 2) vs untreated (PNPLA3 [1]): −0.86 Log 2
Effect on PNPLA3 mRNA levels in stellate cells (PNPLA3 [2]): decreased both PNPLA3 and COL1A1 in HSCs in a dose-dependent manner
Effect on COL1A1 expression in stellate cells (COL1A1 [3]): decreased both PNPLA3 and COL1A1 in HSCs in a dose-dependent manner
COL1A1 expression in mouse liver (COL1A1 [4]): reduced COL1A1 expression

NS(=O)(=O)C#Cc1ccccc1 [Pifithrin-μ, 2-Phenylethynesulfonamide]
PNPLA3 expression, Fold change (Log 2) vs untreated (PNPLA3 [1]): −0.68 Log 2

C1=C/COCc2cc(ccc2OCCN2CCCC2)Nc2nccc(n2)-c2cccc(c2)COC/1 [Pacritinib]
Effect on PNPLA3 expression in human hepatocytes (PNPLA3 [5]): substantial decrease

CN1CCN(S(=O)(=O)c2ccc(-c3cnc(N)c(C(=O)Nc4cccnc4)n3)cc2)CC1 [AZD2858]
Effect on PNPLA3 mRNA levels in stellate cells (PNPLA3 [2]): modestly decreased both PNPLA3 and COL1A1 in a dose dependent manner
Relative COLIA1 mRNA levels RQ (COL1A1 [3]; 1 μM): 0.83
Relative COLIA1 mRNA levels RQ (COL1A1 [3]; 10 μM): 0.72
Effect on COL1A1 expression in stellate cells (COL1A1 [3]): modestly decreased both PNPLA3 and COL1A1 in a dose dependent manner

CNS(=O)(=O)C[C@H]1CC[C@H](N(C)c2ncnc3[nH]ccc23)CC1 [Oclacitinib]
Effect on PNPLA3 expression in human hepatocytes (PNPLA3 [5]): efficient downregulation

O=C1Nc2cc(Br)ccc2/C1=C1/Nc2ccccc2/C1=N\O [BIO]
Effect on PNPLA3 mRNA levels in stellate cells (PNPLA3 [2]): modestly decreased both PNPLA3 and COL1A1 in a dose dependent manner
Relative COLIA1 mRNA levels RQ (COL1A1 [3]; 1 μM): 0.74
Relative COLIA1 mRNA levels RQ (COL1A1 [3]; 10 μM): 0.59
Effect on COL1A1 expression in stellate cells (COL1A1 [3]): modestly decreased both PNPLA3 and COL1A1 in a dose dependent manner

Cc1cc(Nc2nc(N[C@@H](C)c3ncc(F)cn3)ncc2Cl)[nH]n1 [AZD1480]
Effect on PNPLA3 expression in human hepatocytes (PNPLA3 [5]): efficient downregulation

N#CCNC(=O)c1ccc(-c2ccnc(Nc3ccc(N4CCOCC4)cc3)n2)cc1 [Momelotinib, N-(cyanomethyl)-4-{2-[4-(morpholin-4-yl)anilino]pyrimidin-4-yl}benzamide]
Effect on PNPLA3 expression in human hepatocytes (PNPLA3 [5]): substantial decrease; also recorded: dose-dependent response
Effect on PNPLA3 mRNA levels in stellate cells (PNPLA3 [2]): reduced PNPLA3 mRNA levels in stellate cells in a dose-dependent manner
Effect on COL1A1 expression in stellate cells (COL1A1 [3]): did not alter COL1A1 expression
Response of mutant PNPLA3 mRNA levels in HepG2 cells [6]: dose-dependent manner
PNPLA3 expression in mouse liver (PNPLA3 [7]): reduced PNPLA3 significantly
Animal body weight, organ weight, other liver genes such as albumin, ASGR1, HAMP1 [8]: No change was observed
IC50 (JNK): < 100 nM

S=C(NCc1ccc2c(c1)OCO2)N1CCN(c2ncnc3c2oc2ccccc23)CC1 [Amuvatinib]
PNPLA3 expression, Fold change (Log 2) vs untreated (PNPLA3 [1]): −0.52 Log 2
IC50 [9]: 10 nM
IC50 [10]: 40 nM
IC50 (FLT3): 81 nM

COc1nc(N)nc2c1ncn2[C@@H]1O[C@H](COP(=O)(N[C@@H](C)C(=O)OCC(C)(C)C)Oc2cccc3ccccc23)[C@@H](O)[C@@]1(C)O (stereo partly shown) [BMS-986094]
PNPLA3 expression, Fold change (Log 2) vs untreated (PNPLA3 [1]): −0.69 Log 2

COc1ccc(-c2cc3c(C)nc(N)nc3n([C@H]3CC[C@H](OCCO)CC3)c2=O)cn1 [PF-04691502]
Relative PNPLA3 mRNA levels (PNPLA3 [11]; 1 μM): 0.21 ± 0.10

CCC(=O)N1CCN(c2ccc(-n3c(=O)ccc4cnc5ccc(-c6cnc7ccccc7c6)cc5c43)cc2C(F)(F)F)CC1 [Torin 1]
Relative PNPLA3 mRNA levels (PNPLA3 [11]; 10 μM): 0.53 ± 0.25
Relative PNPLA3 mRNA levels RQ (PNPLA3 [2]; compound 0.01 μM): 0.34
Relative PNPLA3 mRNA levels RQ (PNPLA3 [2]; compound 0.1 μM): 0.65
Relative PNPLA3 mRNA levels RQ (PNPLA3 [2]; compound 1 μM): 0.99
Relative PNPLA3 mRNA levels RQ (PNPLA3 [2]; compound 10 μM): 2.39
Relative COL1A1 mRNA levels RQ (COL1A1 [3]; compound 0.01 μM): 0.29
Relative COL1A1 mRNA levels RQ (COL1A1 [3]; compound 0.1 μM): 0.41
Relative COL1A1 mRNA levels RQ (COL1A1 [3]; compound 1 μM): 0.43
Relative COL1A1 mRNA levels RQ (COL1A1 [3]; compound 10 μM): 0.36

Activin
Upregulation of PNPLA3 in the RNA-seq study (PNPLA3 [1]): best upregulators
Upregulation of PNPLA5 in the RNA-seq study (PNPLA5): best upregulators

B1: GDF2 (BMP9) (protein, UniProt Q9UK05 320-429, looked up)
Growth/differentiation factor …: SAGAGSHCQKTSLRVNFEDIGWDSWIIAPKEYEAYECKGGCFFPLADDVTPTKHAIVQTLVHLKFPTKVGKACCVPTKLSPISVLYKDDMGVPTLKYHYEGMSVAECGCR
Upregulation of PNPLA3 in the RNA-seq study (PNPLA3 [1]): best upregulators
Upregulation of PNPLA5 in the RNA-seq study (PNPLA5): best upregulators
